Target: T1, human PAR-2 (hPAR-2) receptor expressed in HEK-293 T cells in an endogenous manner (Homo sapiens, UniProt P55085)
T1 construct: human PAR-2 (hPAR-2) receptor expressed in HEK-293 T cells in an endogenous manner; endogenous in cells; host or cells: HEK-293 T cells
T1 sequence (P55085 26-397): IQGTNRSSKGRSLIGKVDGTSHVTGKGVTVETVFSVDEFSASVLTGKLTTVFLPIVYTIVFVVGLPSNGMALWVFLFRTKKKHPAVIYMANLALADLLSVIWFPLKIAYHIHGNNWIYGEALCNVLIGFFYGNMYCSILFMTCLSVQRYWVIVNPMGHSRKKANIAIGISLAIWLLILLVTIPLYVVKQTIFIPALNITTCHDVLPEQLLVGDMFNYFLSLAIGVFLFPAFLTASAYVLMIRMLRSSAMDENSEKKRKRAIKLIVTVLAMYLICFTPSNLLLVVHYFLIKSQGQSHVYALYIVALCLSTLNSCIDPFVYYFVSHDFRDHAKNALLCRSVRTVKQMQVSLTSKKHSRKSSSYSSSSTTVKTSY
Assay: In vitro human PAR-2 functional antagonist activity using calcium assays (Fluo4AM, FLIPR Tetra)
Assay type: cell-based
Settings: HEK-293 T cells stimulated by an EC80 of the 2-Furoyl-LIGRLO-NH2 peptide after 10 min incubation with compound; 20 concentrations, duplicate, two independent experiments
In short: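 Antagonist activity was taken as the decrease in the calcium response to an EC80 of 2-Furoyl-LIGRLO-NH2, measured over 5 min. The agonist was added after a 10 min compound-alone step on the same plate. The HEK-293 T cells express PAR-2 endogenously and were loaded with 1 μM Fluo4AM. Signals were referenced to buffer and EC80-alone controls.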

| IC50 [µM] | SMILES |
| --- | --- |
| 0.02 to 10 | CC(C)(C)n1cc(-c2ccc(Cl)c(F)c2)c2ccc(C(=O)N3CCS(=O)(=O)CC3)nc21 [Example 214, (1-(tert-butyl)-3-(4-chloro-3-fluorophenyl)-1H-pyrrolo[2,3-b]pyridin-6-yl)(1,1-dioxidothiomorpholino)methanone] |
| 0.02 to 10 | COc1ccc(-c2cn(CC(C)C)c3nc(C(=O)N4CCNC(=O)C4(C)C)ccc23)cn1 [Example 105, 4-(1-isobutyl-3-(6-methoxypyridin-3-yl)-1H-pyrrolo[2,3-b]pyridine-6-carbonyl)-3,3-dimethylpiperazin-2-one] |
| > 10 | CC1(C)CN(c2ccc(P(=O)(O)O)cn2)CCN1C(=O)c1ccc2c(-c3ccc(Cl)c(F)c3)cn(C(C)(C)C)c2n1 [Example 194, (6-(4-(1-(tert-butyl)-3-(4-chloro-3-fluorophenyl)-1H-pyrrolo[2,3-b]pyridine-6-carbonyl)-3,3-dimethylpiperazin-1-yl)pyridin-3-yl)phosphonic acid] |
| 0.02 to 10 | COC(=O)CC1CCN(C(=O)c2ccc3c(-c4ccc(Cl)c(F)c4)cn(CC(C)C)c3c2)CC1 [Example 203, methyl 2-(1-(3-(4-chloro-3-fluorophenyl)-1-isobutyl-1H-indole-6-carbonyl)piperidin-4-yl)acetate] |
| 0.02 to 10 | Cc1cc(N2CCN(C(=O)c3ccc4c(n3)c(CC(C)C)nn4-c3ccc(Cl)c(F)c3)C(C)(C)C2)nc(C)c1C(=O)O [Example 65, 6-(4-(1-(4-chloro-3-fluorophenyl)-3-isobutyl-1H-pyrazolo[4,3-b]pyridine-5-carbonyl)-3,3-dimethylpiperazin-1-yl)-2,4-dimethylnicotinic acid] |
| > 10 | CC(C)Cc1nn(-c2ccc(Cl)c(F)c2)c2ccc(C(=O)N3CCC4(CC3)NC(=O)NC4=O)nc12 [Example 70, 8-(1-(4-chloro-3-fluorophenyl)-3-isobutyl-1H-pyrazolo[4,3-b]pyridine-5-carbonyl)-1,3,8-triazaspiro[4.5]decane-2,4-dione] |
| 0.02 to 10 | CC(C)Cn1cc(-c2cccc(Cl)c2)c2ccc(C(=O)N3CCNC(=O)C3(C)C)nc21 [Example 50, 4-[3-(3-chlorophenyl)-1-isobutyl-pyrrolo[2,3-b]pyridine-6-carbonyl]-3,3-dimethyl-piperazin-2-one] |
| < 0.02 | CC1(C)CN(c2ccc(C(=O)O)cn2)CCN1C(=O)c1ccc2c(-c3ccc(Cl)c(F)c3)cn(C(C)(C)C)c2n1 [Example 137, 6-(4-(1-(tert-butyl)-3-(4-chloro-3-fluorophenyl)-1H-pyrrolo[2,3-b]pyridine-6-carbonyl)-3,3-dimethylpiperazin-1-yl)nicotinic acid] |
| > 10 | Cc1cc2c(nc1C(=O)N1CCNC(=O)C1(C)C)c(CC(C)C)nn2-c1ccc(Cl)c(F)c1 [Example 81] |
| < 0.02 | Cc1cc(N2CCN(C(=O)c3ccc4c(-c5ccc(Cl)c(F)c5)cn(CC5(C)COC5)c4n3)C(C)(C)C2)nc(C)c1C(=O)O [Example 181, 6-(4-(3-(4-chloro-3-fluorophenyl)-1-((3-methyloxetan-3-yl)methyl)-1H-pyrrolo[2,3-b]pyridine-6-carbonyl)-3,3-dimethylpiperazin-1-yl)-2,4-dimethylnicotinic acid] |
| 0.02 to 10 | CC(C)(C)n1cc(-c2ccc(Cl)c(F)c2)c2ccc(C(=O)N3CCC4(CC3)CNC(=O)C4)nc21 [Example 14, 8-(1-(tert-butyl)-3-(4-chloro-3-fluorophenyl)-1H-pyrrolo[2,3-b]pyridine-6-carbonyl)-2,8-diazaspiro[4.5]decan-3-one] |
| > 10 | CN1CNC(=O)C12CCN(C(=O)c1ccc3c(-c4ccc(Cl)c(F)c4)cn(C(C)(C)C)c3n1)CC2 [Example 209, 8-(1-(tert-butyl)-3-(4-chloro-3-fluorophenyl)-1H-pyrrolo[2,3-b]pyridine-6-carbonyl)-1-methyl-1,3,8-triazaspiro[4.5]decan-4-one] |
| 0.02 to 10 | CC(C)Cn1cc(-c2ccc3ccccc3c2)c2ccc(C(=O)N3CCNC(=O)C3(C)C)nc21 [Example 226, 4-(1-isobutyl-3-(naphthalen-2-yl)-1H-pyrrolo[2,3-b]pyridine-6-carbonyl)-3,3-dimethylpiperazin-2-one] |
| > 10 | CC(C)Cc1nn(Cc2ccc(Cl)c(F)c2)c2ccc(C(=O)N3CCNC(=O)C3(C)C)nc12 [Example 78, 4-(1-(4-chloro-3-fluorobenzyl)-3-isobutyl-1H-pyrazolo[4,3-b]pyridine-5-carbonyl)-3,3-dimethylpiperazin-2-one] |
| 0.02 to 10 | CC(C)Cn1cc(-c2cc3cc(F)ccc3[nH]2)c2ccc(C(=O)N3CCNC(=O)C3(C)C)nc21 [Example 225, 4-(3-(5-fluoro-1H-indol-2-yl)-1-isobutyl-1H-pyrrolo[2,3-b]pyridine-6-carbonyl)-3,3-dimethylpiperazin-2-one] |
| 0.02 to 10 | Cc1nn(-c2ccc(Cl)c(F)c2)c2ccc(C(=O)N3CCNC(=O)C3(C)C)nc12 [Example 71, 4-(1-(4-chloro-3-fluorophenyl)-3-methyl-1H-pyrazolo[4,3-b]pyridine-5-carbonyl)-3,3-dimethylpiperazin-2-one] |
| 0.02 to 10 | Cc1cc(C2=CCN(C(=O)c3ccc4c(-c5ccc(Cl)c(F)c5)cn(C(C)(C)C)c4n3)CC2)nc(C)c1C(=O)O [Example 167, 1′-(1-(tert-butyl)-3-(4-chloro-3-fluorophenyl)-1H-pyrrolo[2,3-b]pyridine-6-carbonyl)-4,6-dimethyl-1′,2′,3′,6′-tetrahydro-[2,4′-bipyridine]-5-carboxylic acid] |
| 0.02 to 10 | CC1(C)C(=O)NCCN1C(=O)c1ccc2c(n1)c(C1CCOCC1)nn2-c1ccc(Cl)c(F)c1 [Example 72, 4-(1-(4-chloro-3-fluorophenyl)-3-(tetrahydro-2H-pyran-4-yl)-1H-pyrazolo[4,3-b]pyridine-5-carbonyl)-3,3-dimethylpiperazin-2-one] |
| 0.02 to 10 | Cc1cc(N2C[C@@H]3C[C@H]2CN3C(=O)c2ccc3c(-c4ccc(Cl)c(F)c4)cn(C(C)(C)C)c3n2)nc(C)c1C(=O)O [Example 148, 6-((1S,4S)-5-(1-(tert-butyl)-3-(4-chloro-3-fluorophenyl)-1H-pyrrolo[2,3-b]pyridine-6-carbonyl)-2,5-diazabicyclo[2.2.1]heptan-2-yl)-2,4-dimethyinicotinic acid] |
| 0.02 to 10 | CC(C)(C)n1cc(-c2ccc(Cl)c(F)c2)c2ccc(C(=O)N3CC[C@H]4CNC(=O)[C@H]43)nc21 [Example 15, (3aS,6aS)-1-(1-(tert-butyl)-3-(4-chloro-3-fluorophenyl)-1H-pyrrolo[2,3-b]pyridine-6-carbonyl)hexahydropyrrolo[3,4-b]pyrrol-6(1H)-one] |
| 0.02 to 10 | Cc1cc(N2CCN(C(=O)c3ccc4c(-c5ccc(Cl)c(F)c5)cn(C(C)(C)C)c4n3)[C@@H](C)C2)nc(C)c1C(=O)O [Example 179, (S)-6-(4-(1-(tert-butyl)-3-(4-chloro-3-fluorophenyl)-1H-pyrrolo[2,3-b]pyridine-6-carbonyl)-3-methylpiperazin-1-yl)-2,4-dimethyinicotinic acid] |
| 0.02 to 10 | Cc1cc(N(C)C2CCN(C(=O)c3ccc4c(-c5ccc(Cl)c(F)c5)cn(C(C)(C)C)c4n3)CC2C)nc(C)c1C(=O)O (mixture of isomers) [Example 199, 6-((1-(1-(tert-butyl)-3-(4-chloro-3-fluorophenyl)-1H-pyrrolo[2,3-b]pyridine-6-carbonyl)-3-methylpiperidin-4-yl)(methyl)amino)-2,4-dimethylnicotinic acid] |
| < 0.02 | CC[C@H](C)n1cc(-c2ccc(Cl)c(F)c2)c2ccc(C(=O)N3CCN(c4cc(C)c(C(=O)O)c(C)n4)CC3(C)C)nc21 [Example 172, (S)-6-(4-(1-(sec-butyl)-3-(4-chloro-3-fluorophenyl)-1H-pyrrolo[2,3-b]pyridine-6-carbonyl)-3,3-dimethylpiperazin-1-yl)-2,4-dimethylnicotinic acid] |
| > 10 | CC(C)Cc1nn(-c2ccc(Cl)c(F)c2)c2ccc(C(=O)N3CCC(C(=O)O)C(C)(C)C3)nc12 (stereo not drawn) [Example 69, 1-(1-(4-chloro-3-fluorophenyl)-3-isobutyl-1H-pyrazolo[4,3-b]pyridine-5-carbonyl)-3,3-dimethylpiperidine-4-carboxylic acid] |
| > 10 | CC(C)(C)n1cc(-c2ccc(Cl)c(F)c2)c2ccc(C(=O)N3CC4(COC4)C3)nc21 [Example 10, (1-(tert-butyl)-3-(4-chloro-3-fluorophenyl)-1H-pyrrolo[2,3-b]pyridin-6-yl)(2-oxa-6-azaspiro[3.3]heptan-6-yl)methanone] |
| 0.02 to 10 | Cc1cccc(-c2cn(CC(C)C)c3nc(C(=O)N4CCNC(=O)C4(C)C)ccc23)c1 [Example 118, 4-(1-isobutyl-3-(m-tolyl)-1H-pyrrolo[2,3-b]pyridine-6-carbonyl)-3,3-dimethylpiperazin-2-one] |
| 0.02 to 10 | CC(C)Cc1nc(-c2ccc(Cl)cc2)n2ccc(C(=O)N3CCN(c4ccc(C(=O)O)cn4)CC3(C)C)cc12 [Example 219, 6-(4-(3-(4-chlorophenyl)-1-isobutylimidazo[1,5-a]pyridine-7-carbonyl)-3,3-dimethylpiperazin-1-yl)nicotinic acid] |
